Source: US5589510A, “Method for inhibiting retroviral infection by administering a naphthalenesulfonic acid compound” (priority 1995, dated 1996)
“And” between values parts separate entries of the source, which are not always exact repeats. Equal entries are not always repeated. Where two headings read alike, the source gives them in different places.

What was measured:
[1] = tested on: TA98, TA1535, TA1537, TA1538, TA100 and W2P2uvr; experiment: Ames Test (in the presence of S9); type: cell-based, Salmonella typhimurium; settings: for Ames Test, specific mutagenic activity: the higher the value, the higher the mutagenicity
Source text: Six Salmonella typhimuriumstrai strains, TA98, TA1535, TA1537, TA1538, TA100 and W2P2uvr were used in this experiment.

LD50, intravenous, mice = type: in vivo; settings: mouse, in vivo, female mice, mortalities within 1 week
Procedure: The test material was administered intravenously to 5 female mice in five increasing doses. Mortalities were recorded within 1 week, and the LD50 was determined with the aid of statistical calculations.

[2] = target: T1, recombinant reverse transcriptase (RT) (Human immunodeficiency virus type 1 group M subtype B, UniProt P04585); experiment: Reverse transcriptase inhibition assay; type: biochemical, HIV-1
T1 construct: purchased Worthington Biochemical Corporation
Procedure: Inhibition of recombinant reverse transcriptase (RT) was performed by using commercially available Boehringer Mannheim RT assay kit (Cat. No. 1468 120) based on incorporation of digoxigenin labeled dUTP into DNA. Recombinant enzyme from HIV-1 was purchased from Worthington Biochemical Corporation. The level of anti-RT activity in the sample was determined by measurement of absorbance using an ELISA reader at 405 nm.

HIV-1 RF [3] = experiment: Antiviral assay, Experimental Protocol I (compound added after infection); type: cell-based; settings: Human immunodeficiency virus 1, 240 h, p24 ELISA, read-out: % Inhibition (after day 10); for inhibition at 0.6 µg/mL: 0.6 μg/ml; for inhibition at 1.25 µg/mL: 1.25 μg/ml; for inhibition at 2.5 µg/mL: 2.5 μg/ml; for inhibition at 5 µg/mL: 5 μg/ml
Procedure: HIV-1 infectivity studies were conducted in CEM, H9, MT2 cells and peripheral blood mononuclear cells (PBMC). CEM, H9 and MT2 were grown in RPMI1640 medium, 10% heat-inactivated fetal bovine serum (FBS). PBMCs were stimulated with 4 μg/ml PHA for 48 hours in RPMI1640, 10% FBS before HIV-1 infection. After HIV-1 infection, PBMCs were maintained in RPMI 1640, 10% FBS and 10 10 units/ml IL-2. The major HIV-1 isolates used were MN, IIIB, SF2, AZT-sensitive A018 and AZT-resistant A018 provided by NIH AIDS research and reference reagent program. Two major antiviral assays were developed to determine the antiviral activities of the compounds of this invention (as inhibitors).
I. The cells were infected with HIV-1 RF or IIIB at an infectivity multiplicity (moi) of 0.001 in the absence of a compound of this invention for one hour. HIV-1 infected cells were washed once with PBS, resuspended in RPMI1640, 10% FBS medium and distributed in 24-well culture dishes (5×10^5 cells per well) in the presence of a compound of this invention as inhibitor. […]

HIV-1 patient isolate IH = experiment: Inhibition of HIV-1 patient isolate IH in PBMCs; type: cell-based; settings: Human immunodeficiency virus 1, PBMC, 288 h, read-out: % Inhibition (after day 12); for inhibition at 2.5 µg/mL: 2.5 μg/ml; for inhibition at 5 µg/mL: 5 μg/ml; for inhibition at 10 µg/mL: 10 μg/ml; for inhibition at 20 µg/mL: 20 μg/ml
Procedure: (§1) The inhibitory effects of additional naphthalenesulfonic acid compounds were tested as follows: Experimental Details:
PBMCs were activated for 48 hours in conditioned medium containing PHA at a concentration of 4 μg/ml. […] The test compound, previously dissolved in a glucose solution (1 mg/ml), was then added to each of the wells to achieve the appropriate concentration. The plate was then incubated overnight (about 15 hours) after which 50 μl of cell-free HIV-1 patient isolate was added to each well. The plates were incubated for further 6 to 8 hours after which all free floating solution of virus was washed off. Washing was performed four times.
(§2) After removal of the virus, all cultures were resuspended in conditioned medium containing 10% FCS.
(§3) For control experiments virus growth was monitored in either 10% FCS or 50% FCS throughout the observation period (15 days).

[4] = tested on: HIV-1 patient isolate NIH 900285; experiment: Inhibition of HIV-1 patient isolate NIH 900285 in PBMCs; type: cell-based; settings: Human immunodeficiency virus 1, PBMC, 288 h, 10% FCS, read-out: % Inhibition (after day 12); for inhibition at 1 µg/mL: 1.0 μg/ml; for inhibition at 2.5 µg/mL: 2.5 μg/ml; for inhibition at 5 µg/mL: 5 μg/ml
Procedure: as §1
PBMCs were activated for 48 hours in conditioned medium containing PHA at a concentration of 4 μg/ml. Thereafter 10^6 cells were plated in each of the 24 well plates containing 10% FCS or 50% FCS. The test compound, previously dissolved in a glucose solution (1 mg/ml), was then added to each of the wells to achieve the appropriate concentration. The plate was then incubated overnight (about 15 hours) after which 50 μl of cell-free HIV-1 patient isolate was added to each well. The plates were incubated for further 6 to 8 hours after which all free floating solution of virus was washed off. Washing was performed four times.
as §2, §3

HIV-1 RF strain = experiment: SCID mouse model (SCID-hu mice infected with HIV-1); type: in vivo
Procedure: Immunodeficient CB-17 SCID (severe combined immunodeficient) mice were reconstituted with human peripheral blood cells (Scid-hu). Two weeks after engraftment, the presence of human IgG indicating the presence of functional T and B cells was confirmed. Four weeks after engraftment, SCID-hu mice were infected with 10^6 tissue culture infectious doses/ml (TCID) of RF strain by ip injection.
Twenty-four hours after infection, 8 infected mice were treated daily with Compound 6 aqueous 5% glucose solution by ip injection at a dose of 50 mg/kg for only five days. The same dose of D-(+)-glucose was injected into SCID hu mice as a control. One month after final ip dose, peritoneal cells from the mice were cocultured with human lymphocytes. After four weeks, cultures were scored for the production of virus by assaying HIV-1 p24 levels in the supernatant. […] On the other hand, 5 of the 8 control mice had cultivated virus.

HIV-1 RF [5] = experiment: Antiviral assay, Experimental Protocol II (virus incubated with compound before cells); type: cell-based; settings: Human immunodeficiency virus 1, 240 h, 10% FCS, p24 ELISA, read-out: % Inhibition (after day 10); for inhibition at 1.25 µg/mL: 1.25 μg/ml; for inhibition at 2.5 µg/mL: 2.5 μg/ml; for inhibition at 5 µg/mL: 5 μg/ml
standard Ames Test = settings: literature (K-T. Chung et al); cited from earlier work
reverse transcriptase = settings: literature (Balzarini et al.); cited from earlier work

SMILES: COc1cc(N=Nc2c(S(=O)(=O)O)cc3cc(S(=O)(=O)O)cc(NC(=O)c4cccc(Cl)c4Cl)c3c2O)c(OC)cc1N=Nc1c(S(=O)(=O)O)cc2cc(S(=O)(=O)O)cc(NC(=O)c3ccc(Cl)cc3Cl)c2c1O [Compound 6]
- Ames Test result [1]: Negative
- LD50 at 168 h (LD50, intravenous, mice): 130 mg/kg
- inhibition at 0.5 µM [2]: 32%
- inhibition at 5 µM ([2]; at 5.0 μM): 80%
- inhibition at 0.3 µg/mL (HIV-1 RF [3]; 10% FCS, 0.3 μg/ml): 99%
- inhibition at 0.6 µg/mL (HIV-1 RF [3]; 10% FCS): 100%
- inhibition at 1.25 µg/mL (HIV-1 RF [3]; 10% FCS): 100%
- inhibition at 2.5 µg/mL (HIV-1 RF [3]; 10% FCS): 100%
- inhibition at 5 µg/mL (HIV-1 RF [3]; 10% FCS): 100%
- inhibition at 0.6 µg/mL (HIV-1 RF [3]; 50% Human Serum): 63%
- inhibition at 1.25 µg/mL (HIV-1 RF [3]; 50% Human Serum): 64%
- inhibition at 2.5 µg/mL (HIV-1 RF [3]; 50% Human Serum): 99%
- inhibition at 5 µg/mL (HIV-1 RF [3]; 50% Human Serum): 100%
- inhibition at 2.5 µg/mL (HIV-1 patient isolate IH; 10% FCS): 0%
- inhibition at 5 µg/mL (HIV-1 patient isolate IH; 10% FCS): 91%
- inhibition at 10 µg/mL (HIV-1 patient isolate IH; 10% FCS): 82%
- inhibition at 20 µg/mL (HIV-1 patient isolate IH; 10% FCS): 100%
- inhibition at 2.5 µg/mL (HIV-1 patient isolate IH; 50% Human Serum): 13%
- inhibition at 5 µg/mL (HIV-1 patient isolate IH; 50% Human Serum): 80%
- inhibition at 10 µg/mL (HIV-1 patient isolate IH; 50% Human Serum): 90%
- inhibition at 20 µg/mL (HIV-1 patient isolate IH; 50% Human Serum): 100%
- inhibition at 1 µg/mL [4]: 0%
- inhibition at 2.5 µg/mL [4]: 95%
- inhibition at 5 µg/mL [4]: 99%
- detectable HIV specific p24 in mice (HIV-1 RF strain; SCID-hu mice, 50 mg/kg ip daily for five days): none of the 8 mice receiving Compound 6 had any detectable HIV specific p24 above the background of the no virus control
- P24 Day 28 (HIV-1 RF strain; SCID-hu mice, 50 mg/kg ip daily for five days, one value per mouse, coculture supernatant, 50 mg/kg): 46.36 pg/mL and 35.44 pg/mL and 32.61 pg/mL and 40.90 pg/mL and 34.41 pg/mL and 34.36 pg/mL and 49.46 pg/mL and 58.02 pg/mL
- prevention of infection of reconstituted human immune cells (HIV-1 RF strain; treatment for 5 days): sufficient to prevent infection of reconstituted human immune cells in an animal model

SMILES: CCCCCCC(=O)Nc1cc(S(=O)(=O)O)cc2cc(S(=O)(=O)O)c(N=Nc3cc(OC)c(N=Nc4c(S(=O)(=O)O)cc5cc(S(=O)(=O)O)cc(NC(=O)Cc6ccccc6)c5c4O)cc3OC)c(O)c12 [Compound 17]
- Ames Test result [1]: Negative
- LD50 at 168 h (LD50, intravenous, mice): 130 mg/kg
- inhibition at 1.25 µg/mL (HIV-1 RF [5]): 72%
- inhibition at 2.5 µg/mL (HIV-1 RF [5]): 98%
- inhibition at 5 µg/mL (HIV-1 RF [5]): 100%

SMILES: COc1cc(-c2ccc(/N=N/c3ccc4c(S(=O)(=O)O)cc(S(=O)(=O)O)c(N)c4c3O)c(OC)c2)ccc1/N=N/c1ccc2c(S(=O)(=O)O)cc(S(=O)(=O)O)c(N)c2c1O [CSB, Chicago Sky Blue, reference compound]
- Ames Test result [1]: Positive
- Ames Test, specific mutagenic activity [1]: 10 colony no/μg
- LD50 at 168 h (LD50, intravenous, mice): 100 mg/kg
- inhibitory effect against reverse transcriptase (in words) [2]: inhibitory effect against reverse transcriptase
- inhibition at 0.6 µg/mL (HIV-1 RF [3]; 10% FCS): 37%
- inhibition at 1.25 µg/mL (HIV-1 RF [3]; 10% FCS): 70%
- inhibition at 2.5 µg/mL (HIV-1 RF [3]; 10% FCS): 90%
- mutagenic effects in Ames Test (standard Ames Test): strong mutagenic effects

SMILES: CCOc1cc(N=Nc2c(S(=O)(=O)O)cc3cc(S(=O)(=O)O)cc(NC(=O)c4cccc(Cl)c4Cl)c3c2O)c(OCC)cc1N=Nc1c(S(=O)(=O)O)cc2cc(S(=O)(=O)O)cc(NC(=O)c3ccc(Cl)cc3Cl)c2c1O [Compound 28]
- Ames Test result [1]: Negative
- inhibition at 1.25 µg/mL (HIV-1 RF [3]; 10% FCS): 100%
- inhibition at 2.5 µg/mL (HIV-1 RF [3]; 10% FCS): 100%
- inhibition at 5 µg/mL (HIV-1 RF [3]; 10% FCS): 100%
- inhibition at 1 µg/mL [4]: 0%
- inhibition at 2.5 µg/mL [4]: 67%
- inhibition at 5 µg/mL [4]: 98%

SMILES: Cc1ccc(C(=O)Nc2ccc(S(=O)(=O)O)c3cc(S(=O)(=O)O)cc(S(=O)(=O)O)c23)cc1NC(=O)c1cccc(NC(=O)Nc2cccc(C(=O)Nc3cc(C(=O)Nc4ccc(S(=O)(=O)O)c5cc(S(=O)(=O)O)cc(S(=O)(=O)O)c45)ccc3C)c2)c1 [Suramin, reference compound]
- LD50 at 168 h (LD50, intravenous, mice): 40 mg/kg
- inhibitory effect against reverse transcriptase (in words) [2]: inhibitory effect against reverse transcriptase
- inhibition at 0.5 µM [2]: 68%
- inhibition at 1.25 µg/mL (HIV-1 RF [3]; 10% FCS): 0%
- inhibition at 2.5 µg/mL (HIV-1 RF [3]; 10% FCS): 0%
- inhibition at 5 µg/mL (HIV-1 RF [3]; 10% FCS): 0%
- inhibition of reverse transcriptase (reverse transcriptase): inhibitors of reverse transcriptase

SMILES: Cc1cc(NC(=O)Nc2ccc(N=Nc3cc(S(=O)(=O)[O-])c4cccc(S(=O)(=O)[O-])c4c3)c(C)c2)ccc1N=Nc1cc(S(=O)(=O)[O-])c2cccc(S(=O)(=O)[O-])c2c1.[Na+].[Na+].[Na+].[Na+] [Direct Yellow 50]
- inhibition of reverse transcriptase (reverse transcriptase): inhibitors of reverse transcriptase

SMILES: COc1cc(N=Nc2c(S(=O)(=O)O)cc3cc(S(=O)(=O)O)cc(NC(=O)c4cc(Cl)cc(Cl)c4)c3c2O)c(OC)cc1N=Nc1c(S(=O)(=O)O)cc2cc(S(=O)(=O)O)cc(NC(=O)Cc3ccccc3)c2c1O [Compound 14]
- Ames Test result [1]: Positive
- Ames Test, specific mutagenic activity [1]: 0.12 colony no/μg
- LD50 at 168 h (LD50, intravenous, mice): 160 mg/kg
- inhibition at 1.25 µg/mL (HIV-1 RF [5]): 50%
- inhibition at 2.5 µg/mL (HIV-1 RF [5]): 56%
- inhibition at 5 µg/mL (HIV-1 RF [5]): 98%
